# Values of other authors in US10543172B2, “Econazole composition and methods of treatment therewith” (PARAGON NORDIC AB, priority 2010, dated 2020).
# Test system: dermatophytes and yeasts
# Details: Liao et al., Yao Xue Xue Bao 28(1):22-7 (1993)
structure (smiles),measurement,value
Clc1ccc(CO[C@@H](Cn2ccnc2)c2ccc(Cl)cc2Cl)cc1 [(R)-(−)-econazole],antifungal activity of stereoisomer,greater antifungal activity
